We go through two compounds from ChEMBL document CHEMBL1159208, “The structures and cytotoxic properties of polyketide peroxides from a Plakortis sponge” (J Nat Prod, 1995).

The structures appear in SMILES notation. The source made the active and inactive calls. The calls are words filed in the database; no cut-off is given here.

The assay relates to NCI60. The assay can be described thus: Cytotoxicity against human NCI60 cells. In kind it is functional, cell-based.

Turning to `C[C@]1(CCCCCCCCc2ccccc2)CC[C@](C)(CCC(=O)O)OO1`, the outcome was inactive.

For `C[C@]1(CCCCCCCCCCc2ccccc2)C[C@@]2(C)OC(=O)C[C@H]2O1`, the outcome was inactive.
